Patent US9340511B2, “Process for making isoquinoline compounds” (FIBROGEN, INC., priority 2012, dated 2016)

System: Hep3B cells
Assay: Cell-Based EPO Assay
Set-up: species or system human
Conditions: 30 μM compound in DMSO compared to DMSO only control, 72 hours, value minus vehicle control
Method: Cell-Based EPO Assay Hep3B cells (human hepatocellular carcinoma cells from ATCC, cat # HB-8064) were plated at 25,000 cells per well 96 well plates. The next day, the cells were washed once with DMEM (Cellgro, cat #10-013-CM)+0.5% fetal bovine serum (Cellgro, cat #35-010-CV) and incubated with various concentrations of compound or vehicle control (0.15% DMSO) in DMEM+0.5% fetal bovine serum for 72 hours. Cell free culture supernatants were generated by transfer to a conical bottom 96 well plate and centrifugation for 5 minutes at 2000 rpm. The supernatant was quantitated for EPO using a human EPO ELISA kit (R&D Systems, cat # DEP 00). The EPO values for the compounds reported herein (e.g., Table 1) are the measured value for cells plus compound minus the value for the vehicle control for the same cell preparation. The EPO values for the vehicle control for the cell preparations used in experiments reported herein varied from 0-12.5 mIU/ml.

## Cc1nc(C(=O)NCC(=O)O)c(O)c2c(Oc3ccccc3)cccc12 [Compound 1f, 2-(4-hydroxy-1-methyl-5-phenoxyisoquinoline-3-carboxamido)acetic acid]
  Cell EPO* (mIU/ml): 98.6 mIU/ml

## Cc1nc(C(=O)NCC(=O)O)c(O)c2cc(Oc3ccccc3)ccc12 [Compound 2f, 2-(4-hydroxy-1-methyl-6-phenoxyisoquinoline-3-carboxamido)acetic acid]
  Cell EPO* (mIU/ml): 78 mIU/ml

## Cc1nc(C(=O)NCC(=O)O)c(O)c2cccc(Oc3ccccc3)c12 [Compound 4f, 2-(4-hydroxy-1-methyl-8-phenoxyisoquinoline-3-carboxamido)acetic acid]
  Cell EPO* (mIU/ml): 52 mIU/ml

## COc1ccc(Oc2ccc3c(O)c(C(=O)NCC(=O)O)nc(C)c3c2)cc1 [Compound 5f, 2-[4-hydroxy-1-methyl-7-(4-methoxy-phenoxy)-isoquinoline-3-carboxamido]acetic acid]
  Cell EPO* (mIU/ml): 209 mIU/ml

## COc1ccc(Oc2ccc3c(C)nc(C(=O)NCC(=O)O)c(O)c3c2)cc1 [Compound 6f, 2-[4-hydroxy-1-methyl-6-(4-methoxy-phenoxy)-isoquinoline-3-carboxamido]acetic acid]
  Cell EPO* (mIU/ml): 191 mIU/ml

## Cc1nc(C(=O)NCC(=O)O)c(O)c2ccc(Oc3cc(F)cc(F)c3)cc12 [Compound 7f, 2-[4-hydroxy-1-methyl-7-(3,5-difluoro-phenoxy)-isoquinoline-3-carboxamido]acetic acid]
  Cell EPO* (mIU/ml): 225 mIU/ml

## Cc1nc(C(=O)NCC(=O)O)c(O)c2cc(Oc3cc(F)cc(F)c3)ccc12 [Compound 8f, 2-[4-hydroxy-1-methyl-6-(3,5-difluoro-phenoxy)-isoquinoline-3-carboxamido]acetic acid]
  Cell EPO* (mIU/ml): 105 mIU/ml
